For one experiment, the target named is T1, StOASS-A (Salmonella typhimurium, UniProt P0A1E3).
T1 construct: His-tag (with TEV site) (cleaved yes); made in house; host or cells: E. coli Rosetta (DE3)
As to the kind of experiment: Fluorescence binding assay on purified recombinant StOASS-A. Also noted: species or system S. Typhimurium. To be noted: 20 °C, 100 mM HEPES, 5% DMSO, pH 7.0, racemic mixture, esters tested up to 100 μM. As to the method:
(§1) The affinity of the compounds for StOASS-A and StOASS-B was determined on the purified recombinant proteins by an in vitro fluorescence binding assay. Measurements were carried out at 20 °C in a 3 mm pathlength quartz microcuvette in 100 mM HEPES, 5% DMSO (Applichem, Darmstadt, Germany), pH 7.0, using a Fluoromax-4 (Horiba Jobin-Yvon, Kyoto, Japan) spectrofluorometer. Emission spectra of solutions containing 0.2–1.0 μM StOASS, upon excitation of the pyridoxal 5′-phosphate cofactor at 412 nm, in the presence of increasing concentrations of compounds were collected; fluorescence intensities at 500 nm were plotted to compound concentration and data were fitted to a binding isotherm: I=I0+ΔI·compound/KD+compound where I is the fluorescence emission intensity at 500 nm in the presence of a given concentration of compound, I0 is the initial fluorescence emission in the absence of ligands, ΔI is the amplitude of the fluorescence emission change and KD is the dissociation constant. When the KD was lower than the protein concentration, data were fitted to the quadratic equation: I=I0+ΔI·OASS+compound+KD−OASS+compound+KD^2−4·OASS·compound/2
(§2) Data were collected in duplicate.
(§3) Esters were tested up to a concentration of 100 μM and no binding was observed.

The next experiment deals with T2, StOASS-B (Salmonella typhimurium, UniProt P29848).
T2 construct: His-tag (with TEV site) (cleaved yes); made in house; host or cells: E. coli Rosetta (DE3)
T2 sequence (P29848 1-303): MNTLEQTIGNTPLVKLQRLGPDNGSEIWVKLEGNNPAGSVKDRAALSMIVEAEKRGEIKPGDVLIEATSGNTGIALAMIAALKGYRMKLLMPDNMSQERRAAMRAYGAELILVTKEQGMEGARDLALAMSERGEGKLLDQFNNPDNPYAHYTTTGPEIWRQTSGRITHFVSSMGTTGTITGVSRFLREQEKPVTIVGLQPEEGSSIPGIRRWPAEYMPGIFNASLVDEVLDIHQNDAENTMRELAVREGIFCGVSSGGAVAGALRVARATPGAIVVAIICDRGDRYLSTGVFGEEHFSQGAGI
As to the kind of experiment: Fluorescence binding assay on purified recombinant StOASS-B. As to the method:
as §1, §2, §3

The test system of a further experiment is S. Typhimurium ATCC14028. The experiment can be described thus: MIC by broth microdilution, S. Typhimurium. To be noted: Salmonella enterica; compound alone, MHB, 24 h at 37 °C; read-out: MIC (μg/mL) S. Typhimurium ATCC14028. It is filed as cell-based, Salmonella enterica serovar Typhimurium. In outline: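 CLSI-based broth microdilution in MHB, inoculum 5 × 10^5 CFU/mL from log-phase cultures, compounds tested at 256–0.5 µg/mL final, 24 h at 37 °C static aerobic. MIC read by unaided eye with mirror plus OD620 for growth inhibition; mean ± SD of three experiments in triplicate.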
A general note: Dilution methods test growth across graded concentrations, often in twofold steps.

Data on two compounds can be found in publication PMC9227781, “Inhibitors of O-Acetylserine Sulfhydrylase with a Cyclopropane-Carboxylic Acid Scaffold Are Effective Colistin Adjuvants in Gram Negative Bacteria” (Pharmaceuticals, 2022).

By Kd is commonly meant the constant that tells how readily two partners part at equilibrium.

T1 sequence (P0A1E3 whole entry): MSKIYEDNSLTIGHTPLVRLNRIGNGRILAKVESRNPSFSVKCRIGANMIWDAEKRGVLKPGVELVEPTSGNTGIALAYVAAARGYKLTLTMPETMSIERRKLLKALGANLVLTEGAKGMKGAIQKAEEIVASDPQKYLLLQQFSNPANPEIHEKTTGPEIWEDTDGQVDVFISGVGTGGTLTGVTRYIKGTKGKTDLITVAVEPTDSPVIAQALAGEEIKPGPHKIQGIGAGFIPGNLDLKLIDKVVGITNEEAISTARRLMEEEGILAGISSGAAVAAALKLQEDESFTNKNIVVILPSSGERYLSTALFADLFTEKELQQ

Regarding `CCOC(=O)C1(Cc2ccc(C)cc2)CC1c1cccc(N2CC(C)OC(C)C2)c1` (stereo not drawn) [Compound 12h, trans-ethyl 2-(3-(2,6-dimethylmorpholino)phenyl)-1-(4-methylbenzyl)cyclopropanecarboxylate], the “KD (μM) OASS-A” value on StOASS-A is “No binding”. The “KD (μM) OASS-B” value on StOASS-B (20 °C, 100 mM HEPES, 5% DMSO, pH 7.0, racemic mixture, esters tested up to 100 μM) is reported as “No binding”. Also, the MIC in the experiment with S. Typhimurium ATCC14028 was greater than 512 µg/mL.

`Cc1ccc(CC2(C(=O)O)CC2c2cccc(N3CC(C)OC(C)C3)c2)cc1` (stereo not drawn) [Compound 13h, trans-2-(3-(2,6-dimethylmorpholino)phenyl)-1-(4-methylbenzyl)cyclopropanecarboxylic acid]: at StOASS-A, the “KD (μM) OASS-A” value is recorded as “most potent in vitro activity among the derivatives substituted with heteroaliphatic groups”. Also, the Kd on StOASS-A (read-out: KD (μM) OASS-A) was determined as 0.066 ± 0.005 µM; on StOASS-B, 3.37 ± 0.72 µM. The MIC in the experiment on S. Typhimurium ATCC14028 was greater than 512 µg/mL.
